Assay results taken from patent publication US9139523B2, “5-HT2B receptor antagonists” (Janssen Pharmaceutica, NV, priority 2010, dated 2015).

Test: Pharmacokinetic evaluation in the mouse
Format: in vivo
Settings: male CD1 mouse
Procedure: For intravenous (i.v.) administration, Compound (−)-17 was dissolved in saline containing 20% (w/v) hydroxy-propyl-beta-cyclodextrin (HPbCD) at a concentration of 0.25 mg/mL and administered (10 mL/kg) to male CD1 mice (n=3) as a bolus via a tail vein at a dose level of 2.5 mg/kg. For oral (p.o.) administration, Compound (−)-17 was dissolved in water containing 20% (w/v) HPbCD at a concentration of 0.5 mg/mL and administered (20 mL/kg) to male CD1 mice (n=3) via gavage at a dose level of 10 mg/kg. Blood samples were collected via a saphenous vein at serial time points up to 24 h after dosing. Plasma was obtained by centrifugation and stored at −20° C. prior to analysis. Analysis was performed using liquid chromatography (LC) with tandem mass spectrometric detection (MS/MS) in positive ion mode. Compound (−)-17 was eluted from a reversed phase column with a gradient of acetonitrile and water containing 0.1% (v/v) formic acid. At the time of analysis plasma samples (20 uL) were thawed and […] with 200 uL of acetonitrile and centrifuged. Aliquots of the supernatant were injected onto a reversed phase UPLC column and analysed via electrospray Mass Spectrometry. Calibration standards and quality controls, analysed before and after the study samples, were prepared in mouse plasma at the same time as […]. The accuracy (intra branch accuracy from independent QC samples) was between 85% and 115% of the nominal value over the entire concentration range. Non-compartmental pharmacokinetic analysis of the plasma concentration-time curves was performed using WinNonLin to provide estimates of the plasma clearance (CLp), volume of distribution at steady-state (Vss), terminal phase elimination half-life ([…]) and oral bioavailability (F), the results are summarised in Table 8.

Question: For COc1cc(N)c(Cl)cc1C(=O)NC1CCN(CCCOc2ccc(F)cc2)CC1(F)F (single isomer, unassigned) [Compound (−)-17, 4-amino-5-chloro-N-{3,3-difluoro-1-[3-(4-fluorophenoxy)-propyl]-piperidin-4-yl}-2-methoxybenzamide], which F (p.o. 10 mg/kg vs i.v. 2.5 mg/kg) is on record?
Answer: 52%

Question: What about the half-life (plasma, intravenous, 2.5 mg/kg, read-out: t½ (converted)) of the same compound?
Answer: 84 ± 12 min

Question: What about the clearance (plasma, iv, i.v. 2.5 mg/kg) of the same compound?
Answer: 20 ± 6 mL/min/kg

Question: And the Vd (plasma, iv, i.v. 2.5 mg/kg, read-out: Vss)?
Answer: 1.9 ± 0.6 L/kg

Question: And the AUC(0-t) (plasma, po, p.o. 10 mg/kg)?
Answer: 4440 ± 1090 ng·h/mL

Question: And the Cmax (plasma, po, p.o. 10 mg/kg)?
Answer: 1580 ± 165 ng/mL

Question: And the Tmax (plasma, po, p.o. 10 mg/kg)?
Answer: 30 min
